13 compounds from ChEMBL document CHEMBL2073753, “Steroid and bile acid conjugates are substrates of human multidrug-resistance protein (MRP) 4 (ATP-binding cassette C4)” (Biochem J, 2003) can be followed below.

Assay [1] deals with T1, ATP-binding cassette sub-family C member 4 (Homo sapiens, UniProt O15439).
T1 sequence (O15439 whole entry): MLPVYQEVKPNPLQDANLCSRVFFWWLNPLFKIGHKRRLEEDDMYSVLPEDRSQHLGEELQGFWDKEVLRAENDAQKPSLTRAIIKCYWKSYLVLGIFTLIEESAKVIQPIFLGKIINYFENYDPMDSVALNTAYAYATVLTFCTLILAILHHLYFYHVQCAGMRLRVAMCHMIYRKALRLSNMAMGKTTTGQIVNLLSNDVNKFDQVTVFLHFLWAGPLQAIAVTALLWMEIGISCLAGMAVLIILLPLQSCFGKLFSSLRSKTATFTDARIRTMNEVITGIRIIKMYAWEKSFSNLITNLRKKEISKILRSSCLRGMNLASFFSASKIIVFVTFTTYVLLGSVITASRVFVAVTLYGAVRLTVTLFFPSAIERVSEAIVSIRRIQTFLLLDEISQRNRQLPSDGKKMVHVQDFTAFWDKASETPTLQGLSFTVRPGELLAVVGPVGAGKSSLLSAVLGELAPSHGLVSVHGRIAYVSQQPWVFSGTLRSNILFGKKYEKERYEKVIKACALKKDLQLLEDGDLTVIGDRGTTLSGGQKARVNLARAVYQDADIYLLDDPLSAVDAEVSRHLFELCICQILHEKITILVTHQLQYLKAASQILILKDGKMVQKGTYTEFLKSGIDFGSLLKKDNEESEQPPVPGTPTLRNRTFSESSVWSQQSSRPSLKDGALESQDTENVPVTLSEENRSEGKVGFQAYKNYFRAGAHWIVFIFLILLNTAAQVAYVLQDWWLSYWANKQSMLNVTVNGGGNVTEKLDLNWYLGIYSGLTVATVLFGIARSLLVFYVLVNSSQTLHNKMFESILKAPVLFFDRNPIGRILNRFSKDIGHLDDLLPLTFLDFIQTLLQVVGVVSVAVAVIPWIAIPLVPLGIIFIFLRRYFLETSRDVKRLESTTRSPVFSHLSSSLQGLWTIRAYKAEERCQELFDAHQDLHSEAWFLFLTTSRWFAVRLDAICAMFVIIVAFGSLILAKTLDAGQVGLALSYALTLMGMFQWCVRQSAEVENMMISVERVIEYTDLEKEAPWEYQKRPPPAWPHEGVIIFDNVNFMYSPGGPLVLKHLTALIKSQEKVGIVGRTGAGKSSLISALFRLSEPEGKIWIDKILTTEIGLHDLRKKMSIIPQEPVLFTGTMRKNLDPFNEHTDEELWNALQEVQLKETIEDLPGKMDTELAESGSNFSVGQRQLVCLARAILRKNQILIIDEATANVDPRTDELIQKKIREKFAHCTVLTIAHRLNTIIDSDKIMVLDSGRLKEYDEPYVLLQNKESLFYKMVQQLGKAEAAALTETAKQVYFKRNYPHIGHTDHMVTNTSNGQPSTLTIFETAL
Kind of assay: TP_TRANSPORTER: inhibition of DHEAS in membrane vesicles from MRP4-expressing Sf9 cells. It counts as functional, cell membranes, Membrane vesicle.

Assay [2] addresses T1, ATP-binding cassette sub-family C member 4. Kind of assay: TP_TRANSPORTER: inhibition of E217betaG uptake in membrane vesicles from MRP4-expressing Sf9 cells. It counts as functional, cell membranes, Membrane vesicle.
The target is the same in assay [3]. Kind of assay: TP_TRANSPORTER: inhibition of E217betaG uptake in membrane vesicles from MRP4-expressing HEK-293 cells. It counts as functional, cell membranes, HEK293, Membrane vesicle.

One may read the IC50 as the concentration at which inhibition is half-maximal. Low readings indicate higher potency, high ones lower potency. With `C[C@]12CC[C@@H]3c4ccc(O[C@@H]5O[C@H](C(=O)O)[C@@H](O)[C@H](O)[C@H]5O)cc4CC[C@H]3[C@@H]1CC[C@@H]2O`, the figures for the IC50 in assay [1] and in assay [2] were 80 µM and 120 µM, respectively.
As to `C[C@]12CC[C@@H]3c4ccc(OS(=O)(=O)O)cc4CC[C@H]3[C@@H]1CC[C@H]2O`, the results for the half-maximal inhibitory concentration (IC50) in assay [1] and in assay [2] were 70 µM and 50 µM, respectively.
In assay [3], `C[C@H](CCC(=O)NCCS(=O)(=O)O)[C@H]1CC[C@H]2[C@@H]3CC[C@@H]4C[C@H](O)CC[C@]4(C)[C@H]3C[C@H](O)[C@]12C` [TAURODEOXYCHOLIC ACID] displayed an IC50 of 60 µM.
`C[C@H](CCC(=O)NCC(=O)O)[C@H]1CC[C@H]2[C@@H]3CC[C@@H]4C[C@H](OS(=O)(=O)O)CC[C@]4(C)[C@H]3CC[C@]12C` yielded an IC50 in assay [3] of 10 µM.
`C[C@H](CCC(=O)NCCS(=O)(=O)O)[C@H]1CC[C@H]2[C@@H]3CC[C@@H]4C[C@H](O)CC[C@]4(C)[C@H]3CC[C@]12C` [TAUROLITHOCHOLIC ACID] displayed an IC50 in assay [3] of 20 µM.
For the compound `C[C@H](CCC(=O)NCC(=O)O)[C@H]1CC[C@H]2[C@@H]3[C@H](O)C[C@@H]4C[C@H](O)CC[C@]4(C)[C@H]3C[C@H](O)[C@]12C` [GLYCOCHOLIC ACID], the IC50 in assay [3] was determined as 400 µM.
As for `C[C@]12CC[C@@H]3c4ccc(OS(=O)(=O)O)cc4CC[C@H]3[C@@H]1CC[C@@H]2OS(=O)(=O)O` [ESTRADIOL DISULFATE], the IC50 in assay [1] was found to be 0.2 µM; in assay [2] it was 2 µM.
The matching figures for `C[C@]12CC[C@@H]3c4ccc(OS(=O)(=O)O)cc4CC[C@H]3[C@@H]1CCC2=O` [ESTRONE SULFURIC ACID]: 95 µM and 45 µM.
`C[C@H](CCC(=O)O)[C@H]1CC[C@H]2[C@@H]3CC[C@@H]4C[C@H](OS(=O)(=O)O)CC[C@]4(C)[C@H]3CC[C@]12C` returned an IC50 in assay [3] of 10 µM.
`C[C@]12CC[C@H](O[C@@H]3O[C@H](C(=O)O)[C@@H](O)[C@H](O)[C@H]3O)CC1=CC[C@@H]1[C@@H]2CC[C@]2(C)C(=O)CC[C@@H]12`: the IC50 in assay [1] and in assay [2] was 80 µM in each case.
In assay [3], `C[C@H](CCC(=O)NCCS(=O)(=O)O)[C@H]1CC[C@H]2[C@@H]3[C@H](O)C[C@@H]4C[C@H](O)CC[C@]4(C)[C@H]3CC[C@]12C` [TAUROCHENODEOXYCHOLATE] had a half-inhibitory concentration (IC50) of 55 µM.
The compound `C[C@]12CC[C@@H]3c4ccc(O)cc4CC[C@H]3[C@@H]1CC[C@@H]2O[C@@H]1O[C@H](C(=O)O)[C@@H](O)[C@H](O)[C@H]1O` [ESTRADIOL 17B GLUCURONIDE] returned a half-maximal inhibitory concentration (IC50) in assay [1] of 30 µM.
`C[C@H](CCC(=O)NCCS(=O)(=O)O)C1CC[C@H]2[C@@H]3CC[C@@H]4C[C@H](OS(=O)(=O)O)CC[C@]4(C)[C@H]3CC[C@]12C` (stereo partly drawn) registered an IC50 in assay [3] of 10 µM.
